# “Also recorded” adds a separate entry of the source.
# How the values were obtained:
# [1] = system: CNS receptors and ion channels (44 off-target sites); assay: PDSP broad screen of binding at off-target sites; settings: binding screen at 10 μM / Ki follow-up
# [2] = system: CACO-2 cell monolayer / P-glycoprotein; assay: Bidirectional permeability in CACO-2 cell monolayer; settings: CACO-2 monolayer; for P-glycoprotein substrate: bidirectional permeability
# [3] = system: chronic constriction injury (CCI) of the sciatic nerve, mechano-allodynia; assay: CCI model of neuropathic pain in mice, oral dosing, paw withdrawal threshold; assay type: in vivo, mouse; settings: for in vivo duration of action: po, CCI model in mice
# mA3AR = target: T1, mA3AR (Mus musculus, UniProt Q61618); assay type: cell-based
# T1 sequence (Q61618 1-319): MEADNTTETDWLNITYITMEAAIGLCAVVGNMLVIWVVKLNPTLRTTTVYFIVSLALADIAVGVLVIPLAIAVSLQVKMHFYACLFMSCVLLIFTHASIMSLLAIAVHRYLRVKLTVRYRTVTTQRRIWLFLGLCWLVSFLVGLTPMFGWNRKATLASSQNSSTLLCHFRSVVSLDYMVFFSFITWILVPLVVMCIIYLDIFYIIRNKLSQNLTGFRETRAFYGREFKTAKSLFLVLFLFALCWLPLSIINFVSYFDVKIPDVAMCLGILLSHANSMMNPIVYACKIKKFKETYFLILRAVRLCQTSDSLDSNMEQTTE
# hA3AR = target: T2, hA3AR (Homo sapiens, UniProt P0DMS8); assay: Radioligand binding at hA3AR, CHO cell membranes, [125I]I-AB-MECA; settings: read-out: hA3AR Ki, n = 3–4
# T2 sequence (P0DMS8 1-318): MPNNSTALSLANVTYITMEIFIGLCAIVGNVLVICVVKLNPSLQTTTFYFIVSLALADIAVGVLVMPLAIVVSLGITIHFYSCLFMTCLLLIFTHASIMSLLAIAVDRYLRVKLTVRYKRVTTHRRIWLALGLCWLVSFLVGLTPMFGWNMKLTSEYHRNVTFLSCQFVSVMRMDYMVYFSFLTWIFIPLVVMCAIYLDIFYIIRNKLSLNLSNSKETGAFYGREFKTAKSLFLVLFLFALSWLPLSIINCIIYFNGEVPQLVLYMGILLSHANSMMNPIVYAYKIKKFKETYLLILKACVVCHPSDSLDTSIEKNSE
# [4] = Stability in rat liver microsomes
# [5] = Stability in human liver microsomes
# [6] = Stability in mouse liver microsomes
# Plasma protein binding [7] = assay: Plasma protein binding
# Plasma protein binding [8] = assay: Plasma protein binding; remark: listed apart in the source
# Plasma protein binding [9] = assay: Plasma protein binding; remark: listed apart in the source
# [10] = Chemical stability in simulated gastric fluid; settings: pH 1.6, 37 °C
# [11] = Chemical stability in simulated intestinal fluid; settings: pH 6.5, 37 °C
smiles,measurement,setting,value
"CNC(=O)[C@@]12C[C@@H]1[C@@H](n1cnc3c(NC)nc(C#Cc4ccc(F)c(F)c4)nc31)[C@H](O)[C@@H]2O [Compound 13, reference compound]",off-target interactions in PDSP screen,[1],inhibited binding by >30% at only a few sites
"CNC(=O)[C@@]12C[C@@H]1[C@@H](n1cnc3c(NC)nc(C#Cc4cnccn4)nc31)[C@H](O)[C@@H]2O [Compound 23, (1S,2R,3S,4R,5S)-2,3-Dihydroxy-N-methyl-4-(6-(methylamino)-2-(pyrazin-2-ylethynyl)-9H-purin-9-yl)bicyclo[3.1.0]hexane-1-carboxamide]",off-target interactions in PDSP screen,[1],inhibited binding by >30% at only a few sites
same,P-glycoprotein substrate,[2],not to be substrates for P-glycoprotein
"CNC(=O)[C@@]12C[C@@H]1[C@@H](n1cnc3c(NC)nc(C#Cc4cnn(C)c4)nc31)[C@H](O)[C@@H]2O [Compound 26, (1S,2R,3S,4R,5S)-2,3-Dihydroxy-N-methyl-4-(2-((1-methyl-1H-pyrazol-4-yl)ethynyl)-6-(methylamino)-9H-purin-9-yl)bicyclo[3.1.0]hexane-1-carboxamide]",off-target interactions in PDSP screen,[1],relatively free of off-target receptor effects
"CNC(=O)[C@@]12C[C@@H]1[C@@H](n1cnc3c(NC)nc(C#Cc4ccco4)nc31)[C@H](O)[C@@H]2O [Compound 27, (1S,2R,3S,4R,5S)-4-(2-(Furan-2-ylethynyl)-6-(methylamino)-9H-purin-9-yl)-2,3-dihydroxy-N-methylbicyclo[3.1.0]hexane-1-carboxamide]",in vivo duration of action,[3],~3 h
same,off-target interactions in PDSP screen,[1],relatively free of off-target receptor effects; also recorded: completely lacks off-target interactions at 10 μM
same,apical to basal permeability,[2],moderate
same,P-glycoprotein substrate,[2],not to be substrates for P-glycoprotein
"CNC(=O)[C@@]12C[C@@H]1[C@@H](n1cnc3c(NC)nc(C#Cc4cccs4)nc31)[C@H](O)[C@@H]2O [Compound 32, (1S,2R,3S,4R,5S)-2,3-Dihydroxy-N-methyl-4-(6-(methylamino)-2-(thiophen-2-ylethynyl)-9H-purin-9-yl)bicyclo[3.1.0]hexane-1-carboxamide]",IC50,mA3AR,60.1 nM
same,off-target interactions in PDSP screen,[1],inhibited binding by >30% at only a few sites
"CNC(=O)[C@@]12C[C@@H]1[C@@H](n1cnc3c(NC)nc(C#Cc4ccc(Cl)s4)nc31)[C@H](O)[C@@H]2O [Compound 33, (1S,2R,3S,4R,5S)-4-(2-((5-Chlorothiophen-2-yl)ethynyl)-6-(methylamino)-9H-purin-9-yl)-2,3-dihydroxy-N-methylbicyclo[3.1.0]hexane-1-carboxamide]",reversal of neuropathic pain at intermediate dose,"[3]; […] po, Figure 1 dose–response",approximately 80%
same,in vivo duration of action,[3],> 3 h
same,off-target interactions in PDSP screen,[1],"largely free of off-target receptor effects, except at TSPO and σ1 and σ2 receptors"
same,apical to basal permeability,[2],moderate
same,P-glycoprotein substrate,[2],not to be substrates for P-glycoprotein
"CNC(=O)[C@@]12C[C@@H]1[C@@H](n1cnc3c(NC)nc(C#C[c-]4cccc4)nc31)[C@H](O)[C@@H]2O.[Fe+2].c1cc[cH-]c1 [Compound 36, (1S,2R,3S,4R,5S)-4-(2-((Ferrocen-yl)ethynyl)-6-(methylamino)-9H-purin-9-yl)-2,3-dihydroxy-N-methylbicyclo[3.1.0]hexane-1-carboxamide]",Ki,hA3AR,2.7 nM
same,"max effect Emax (% ± SEM), % of complete reversal at peak protection","[3]; 3 μmol/kg po on day 7 after CCI, mice, ipsilateral hind paw",94.3 ± 5.7%
same,in vivo duration of action,[3],> 3 h
same,agonist efficacy at the mA3AR,"mA3AR; cyclic AMP assay, HEK293-mA3AR",full agonists
same,"stability in liver microsomes t1/2, rat",[4],6.64 min
same,"stability in liver microsomes t1/2, human",[5],3.66 min
same,"stability in liver microsomes t1/2, mouse",[6],1.98 min
same,"% unbound in plasma, rat",Plasma protein binding [7],6.32%
same,"% unbound in plasma, human",Plasma protein binding [8],7.00%
same,"% unbound in plasma, mouse",Plasma protein binding [9],4.85%
same,"stability in simulated fluids, gastric, t1/2",[10],46.5 min
same,"stability in simulated fluids, intestinal, t1/2",[11],174 min

# Reference: PMC4266358 (Journal of Medicinal Chemistry, 2014)
